Measured values published in patent US20240424175A1, “ANTICOAGULANT COMPOUNDS COMPRISING CHELATING AGENTS AND CATIONIC ANTI-COAGULATION ENHANCERS AND METHODS AND DEVICES FOR THEIR USE” (Elixir Medical Corporation, priority 2021, published 2024).

Tests used:
citrated sheep blood [1] = test: Activated clotting time (ACT) of EDTA or other anti-coagulant compounds in citrated sheep blood (Example 4); type: biochemical
Procedure: The activated clotting time (ACT) evaluation of anticoagulants was performed in Calcium-reconstituted sheep blood and recorded employing the Hemochron® Response device. […] A target amount of EDTA or other anti-coagulant compounds solution was then added into the test tube. […] The tube was gently shaken before being inserted into the Hemochron Response detector. The ACT read out was recorded and reported.

[2] = pH of 1 mg/ml EDTA or analogue in water or phosphate buffer; type: physicochemical
citrated sheep blood [3] = test: Activated clotting time (ACT) in calcium-reconstituted citrated sheep blood, Hemochron Response (Example 2); type: biochemical; settings: individual drug at 0.6 ng/mg; FIG. 2C
Procedure: The activated clotting time (ACT) evaluation of anticoagulants was performed in calcium-reconstituted sheep blood and recorded employing the Hemochron® Response device. […] A target amount of drug solution was then added into the test tube. […] The tube was gently shaken before being inserted into the Hemochron Response detector. The ACT read out was recorded and reported. The ACT of the control blood in the absence of any drug as first determined to establish a baseline. Then ACT was determined in the presence of different concentrations of the drug as a single component. Selected drug combinations were then tested to evaluate for potential synergy in action between the two drugs.

[4] = test system: Human Aortic SMC (HAoSMC, ATCC, PCS-100-012); test: HAoSMC cell proliferation assay (CellTiter Aqueous, 96-well); type: cell-based; settings: drug alone, various concentrations; 72 hours; FIGS. 1D-1E
Procedure: Cell proliferation assay was done in 96-well format. Low passage cells were trypsinized and seeded in 96 well plates at a density of ˜4000 cells/well. The cells are allowed to attach overnight in a CO2 incubator. Next day, the medium was removed and replaced with fresh complete medium containing various concentrations of the test compounds. The final concentration of vehicle (DMSO) in the test medium was 0.1%. After adding test compounds, the cells were incubated for 72 hours. Following this period, the medium was removed and then added fresh medium (100 μl) containing CellTiter Aqueous (1× concentration final) to the wells and incubated for 2 hours in the CO2 incubator. At the end of incubation measured fluorescence with a plate-reader. Controlled incubations with untreated cells and blank incubations containing only medium were included and tested similarly. Based on the cell viability assay the percentage inhibition of the cell proliferation was determined at the different concentrations of the drug tested.
Following the cell proliferation assay as indicated earlier, the percent cell proliferation inhibition was determined, and the assay results plotted to determine the IC50.

[5] = test system: porcine coronary artery model; test: Late lumen loss (LLL) by follow up angiography in porcine coronary artery model (Example 16); type: in vivo; settings: 14 mm stents, n = 3; smaller is better; bare metal control stent 0.17 ± 0.22
[6] = test system: Tissue factor generated antiplatelet; settings: cited from earlier work; for IC50 for Tissue factor generated antiplatelet: expressed in ng/mg
[7] = test system: porcine coronary artery model; test: Fibrin score, histopathology of stented arteries in porcine coronary artery model (Examples 16, 17); type: in vivo; settings: 14 mm stents, n = 3; score 0 to 3, smaller is better; bare metal control stent 1.02 ± 0.35
Procedure: The drug eluting stent systems containing different anticoagulants prepared as described in Example 11 were evaluated at 3 hours, 6 hours, 1 day, 3 days, 6 days, 7 days, or 28 days following implantation in a porcine coronary artery model.
After induction of anesthesia, the left or right femoral artery was accessed using standard techniques and an arterial sheath was introduced and advanced into the artery. Vessel angiography was performed under fluoroscopic guidance, a 7 Fr, guide catheter was inserted through the sheath and advanced to the appropriate location where intracoronary nitroglycerin was administered. An appropriate implantation segment of coronary artery was randomly selected and a 0.014″ guidewire inserted. Quantitative Coronary Angiography (QCA) was performed to document the results. The appropriately size stent was advanced to the deployment site. The balloon was inflated at a steady rate to a pressure sufficient to achieve a balloon to artery ratio of approximately 1.1 to 1.0.
Stented portions of coronary arteries were embedded in methyl methacrylate (MMA), then divided into a target of at least three blocks of approximately similar lengths for histology evaluation. Quantitative histopathological evaluation of stented artery sections was then performed and scored as indicated. For Fibrin formation, scores ranged from 0 to 3, with a score of 0 indicating absent or rare minimal spotting around struts of the stent, a score of 1 indicating the presence of fibrin in small amounts localized only around the struts, a score of 2 indicating the moderately abundant or denser presence of fibrin around and extending beyond the struts, and a score of 3 indicating the presence of abundant and dense fibrin and/or bridging of the fibrin between the struts. The mean score was calculated and reported. The mean of each section was then averaged to provide a mean fibrin score per stent. The smaller the fibrin score, the better efficacy.

[8] = In vivo drug release, drug remaining on stent and tissue drug concentration of SS7-SS17 stents (Tables 12A-12D); settings: 28 D following implantation
Description: The stented artery was cut longitudinally with surgical scissors. The stents were separated from the tissue.

fresh pig blood = test: Activated clotting time (ACT) of EDTA or analogues in fresh pig blood (Example 3); type: biochemical; settings: for Clotting time: blood control 154
Procedure: The ACT measurements were made in fresh pig blood. 1.0 ml of fresh pig blood was added to a test tube containing an activator (Hemochron@Celite@ ACT tubes, Lot F8FTE026 from Accriva Diagnostics, Inc.). A target amount of drug solution was then added into the test tube. The test tube was gently swirled so that the blood and drug was well-mixed. 0.1 ml of 0.3M calcium chloride was then added. The tube was gently shaken before being inserted into the Hemochron Response detector. The ACT read out was recorded and reported. The ACT of the control blood in the absence of any drug as first determined to establish a baseline.

[9] = final concentration 67 ng/mg (66.7 μg/ml)
[10] = final concentration 100 ng/mg (100 μg/ml)
[11] = final concentration […] (133.3 μg/ml)
[12] = final concentration […] (166.7 μg/ml)
[13] = 1 mg/ml in 0.01M pH 7.4 phosphate buffer, 21.8-22.3 °C
[14] = final drug concentration 75 ng/mg
[15] = final drug concentration 100 ng/mg
[16] = final drug concentration 150 ng/mg
[17] = final drug concentration 200 ng/mg
[18] = final drug concentration 300 ng/mg
[19] = final drug concentration 250 ng/mg
[20] = final drug concentration 500 ng/mg

## CCCCCCCCCCCCCC[N+](C)(C)Cc1ccccc1.[Cl-] [Benzyldimethyltetradecylammonium chloride]
Citrated sheep blood [1]; [9]
  Clotting time: 316 s
  Increase in clotting time compared to control: 114 s
Citrated sheep blood [1]; [10]
  Clotting time: 421 s
  Increase in clotting time compared to control: 219 s
Citrated sheep blood [1]; [11]
  Clotting time: 983 s
  Increase in clotting time compared to control: 781 s
Citrated sheep blood [1]; [12]
  Clotting time: 1370 s
  Increase in clotting time compared to control: 1168 s

## O=C([O-])CN(CCN(CC(=O)[O-])CC(=O)O)CC(=O)[O-].[Na+].[Na+].[Na+] [EDTA tri sodium, trisodium edetate]
[2]; [13]
  pH: 7.77
[2]; 1 mg/ml in d-water, 21.8-22 °C
  pH: 9.21

## COc1ccc(-n2nc(C(N)=O)c3c2C(=O)N(c2ccc(N4CCCCC4=O)cc2)CC3)cc1 [Apixaban]
Citrated sheep blood [3]
  ACT: 522
[4]
  inhibition of HAoSMC proliferation: small to no inhibition

## O=C(NC[C@H]1CN(c2ccc(N3CCOCC3=O)cc2)C(=O)O1)c1ccc(Cl)s1 [Rivaroxaban]
[5]
  LLL at day 7: not effective at inhibiting smooth muscle cell proliferation
[6]
  IC50: 0.312 µM
  IC50 for Tissue factor generated antiplatelet: 0.136 ng/mg
[7]
  Fibrin score at day 7: effective at inhibiting fibrin formation

## CC1CNc2c(cccc2S(=O)(=O)N[C@@H](CCCNC(=N)N)C(=O)N2CC[C@@H](C)C[C@@H]2C(=O)O)C1 (stereo partly shown) [Argatroban]
[5]
  LLL at day 7: not effective at inhibiting smooth muscle cell proliferation
[8]
  Tissue drug concentration (ng/mg) in the stented segment tissue, Argatroban: about 1.69 ng/mg
Citrated sheep blood [3]
  ACT: 301
[6]
  IC50: 0.079 µM
  IC50 for Tissue factor generated antiplatelet: 0.04 ng/mg
[7]
  Fibrin score at day 7: not effective at inhibiting fibrin formation
[4]
  inhibition of HAoSMC proliferation: small to no inhibition

## O=C(O)CN(CCN(CC(=O)O)CC(=O)O)CC(=O)O [EDTA, ethylenediaminetetraacetic acid]
Fresh pig blood; [14]
  Increase in clotting time compared to control: 25 s
  Clotting time: 179 s
Fresh pig blood; [15]
  Increase in clotting time compared to control: 93 s
  Clotting time: 247 s
Fresh pig blood; [16]
  Increase in clotting time compared to control: 121 s
  Clotting time: 275 s
Fresh pig blood; [17]
  Increase in clotting time compared to control: >346 s

## O=C([O-])CN(CCN(CC(=O)O)CC(=O)O)CC(=O)[O-].[K+].[K+] [EDTA dipotasium]
[2]; [13]
  pH: 6.93
[2]; 1 mg/ml in d-water, 21.8-22 °C
  pH: 6.25

## O=C(O)C(S)C(S)C(=O)O (stereo not shown) [Dimercaptosuccinic acid(DMSA), dimercaptosuccinic acid]
Fresh pig blood; [17]
  Increase in clotting time compared to control: -3 s
  Clotting time: 151 s

## O=C([O-])CN(CCN(CC(=O)[O-])CC(=O)O)CC(=O)O.[Na+].[Na+] [EDTA•2Na•2H2O, disodium edetate]
[2]; [13]
  pH: 6.92
[2]; 1 mg/ml in d-water, 21.8-22 °C
  pH: 6.42
Fresh pig blood; [15]
  Increase in clotting time compared to control: 37 s
  Clotting time: 191 s
Fresh pig blood; [17]
  Increase in clotting time compared to control: 110 s
  Clotting time: 264 s
Fresh pig blood; [18]
  Increase in clotting time compared to control: 220 s
  Clotting time: 374 s
Fresh pig blood; final drug concentration 300 ng/mg, blood control 154, listed as EDTA disodium salt
  Clotting time (sec): same trend

## O=C([O-])CN(CCN(CC(=O)[O-])CC(=O)[O-])CC(=O)[O-].[Na+].[Na+].[Na+].[Na+] [EDTA•4Na•xH2O, tetrasodium edetate]
[2]; [13]
  pH: 8.27
[2]; 1 mg/ml in d-water, 21.8-22 °C
  pH: 9.61
Fresh pig blood; [15]
  Increase in clotting time compared to control: 50 s
  Clotting time: 204 s
Fresh pig blood; [17]
  Increase in clotting time compared to control: 121 s
  Clotting time: 275 s
Fresh pig blood; [19]
  Increase in clotting time compared to control: 175 s
  Clotting time: 329 s
Fresh pig blood; [18]
  Increase in clotting time compared to control: >346 s
  Clotting time: >500 s
Fresh pig blood; final drug concentration 300 ng/mg, blood control 154, listed as EDTA tetra sodium salt
  Clotting time (sec): same trend

## Dalteparin
[5]
  LLL at day 7: not effective at inhibiting smooth muscle cell proliferation
[7]
  Fibrin score at day 7: not effective at inhibiting fibrin formation

## CC(=O)OCOC(=O)CN(CCN(CC(=O)OCOC(C)=O)CC(=O)OCOC(C)=O)CC(=O)OCOC(C)=O [EDTA tetra acetoxymethyl ester, tetra acetoxymethyl ester EDTA]
Fresh pig blood; [20]
  Increase in clotting time compared to control: 4 s
  Clotting time: 158 s
